Measurements taken from patent publication US20260232834A1, “CYTOTOXICITY TARGETING CHIMERAS FOR ANTIBODY-DRUG CONJUGATES AND BISPECIFIC ANTIBODIES” (GLAXOSMITHKLINE INTELLECTUAL PROPERTY DEVELOPMENT LIMITED, priority 2023, published 2026).

Tested on: PSMA-expressing cells (LNCAP)
Assay: Antibody-drug conjugate (ADC) cell killing assay, PSMA-expressing cells (CellTiter Glo)
Type: cell-based
Conditions: 100 nM ADC plus serial diluted PSMA targeted CyTaC (max 20 μM), 48 hours, FIG. 3
Excerpt: An antibody-drug conjugate (ADC) cell killing assay was developed to screen cotinine targeted ADCs in a 384-well plate format. This assay utilized (i) an anti-cotinine antibody having a heavy chain sequence of SEQ ID NO: 9 and a light chain sequence of SEQ ID NO: conjugated with Deruxtecan and (ii) a Prostate Specific Membrane Antigen (PSMA) Cytotoxicity Targeting Chimera (CyTaC) to target PSMA expressing cells for death. The structures of the ADC and PSMA targeted CyTaC used in this experiment are shown below:
To screen ADCs, 10,000 PSMA-expressing cells (LNCAP) or 10,000 non-expressing cells (CHO) in media (RPMI 1640 (Gibco) containing 10% fetal bovine serum (Gibco)) were transferred to a 384-well plate (Greiner Bio-One). To each well containing cells, 100 nM ADC was added. Next, serial diluted PSMA targeted CyTaC (maximum concentration of 20 μM) was added to appropriate wells. The plates were then incubated for 48 hours at 37° C. with 5% CO2. Following the 48 hour incubation, an equal volume of CellTiter Glo (Promega) was added to each well and the plates were read on a PheraStar Plate Reader (BMG) to measure cell viability via Luminescence signal. Signal: background was calculated by dividing the signal of a test well by the signal obtained when no CyTaC was added. The % cell death was calculated by: (1-(test well signal/no CyTaC signal))*100. […]

## CN1C(=O)C[C@H](C(=O)NCCO[C@H]2CC[C@H](OCCCC(=O)N[C@H]3CC[C@H](C(=O)N[C@@H](Cc4ccc5ccccc5c4)C(=O)NCCCC[C@H](NC(=O)N[C@@H](CCC(=O)O)C(=O)O)C(=O)O)CC3)CC2)[C@H]1c1cccnc1 [PSMA targeted CyTaC]
  ADC mediated cell killing (% cell death): ADC mediated cell killing of PSMA expressing cells
